Here are results for 2 compounds from paper PMC10454375, “Cell-Impermeable Inhibitors Confirm That Intracellular Human Transglutaminase 2 Is Responsible for the Transglutaminase-Associated Cancer Phenotype” (International Journal of Molecular Sciences, 2023).

Peptide text beside a SMILES is read from it. * marks the point of attachment. X1 = C=CC(=O)NCCCCC(NC(=O)OCc1ccccc1)C(=O)N1CCN(C(=O)C(CCC(=O)*)NC(=O)c2cccc3ccccc23)CC1

Broadly, the efflux ratio is the permeability from basolateral to apical divided by that in the opposite direction, in the common usage. By Papp A→B is commonly meant how fast a substance crosses the layer from the apical side. Low values mean poor permeation, high ones ready permeation. Broadly, the Papp B→A is how fast a substance crosses the layer from the basolateral side. As usually defined, the kinact is the maximal first-order rate at which the target is inactivated. As usually defined, the kinact/KI is the maximal inactivation rate divided by the concentration that gives half of it.

One data set deals with P-gp. Nature of the data set: MDCK cell permeability assay. It is filed as in vitro ADME. Particulars: dog, without Pgp inhibitor.
Data set [1] in a line: MDCK cell permeability assay. It is filed as in vitro ADME. Particulars: dog, without Pgp inhibitor.
A short description of the next data set: PAMPA test. It is filed as in vitro ADME. Particulars: compound not detected in receptor compartment, limit of detection reported. The text has this:
The cell-impermeable inhibitors 17 and 18 were designed to violate virtually all of the rules for cellular permeability described by Lipinski and Veber. They were also empirically evaluated with respect to their pharmacokinetic properties, in particular to determine their cell permeability. In a PAMPA test, the −Log Pe values were very high (Table 2). […] Indeed, neither compound was even detected in the receptor compartment for the PAMPA, resulting in the lower limit of detection being reported as an approximate value.

For the next data set, the target named is T1, Recombinant human TG2 (Homo sapiens, UniProt P21980).
T1 construct: GST (with PSP protease site, plasmid pGST-PSP-rhTG2) (N, cleaved yes); made in house; host or cells: E. coli (BL21)
T1 sequence (P21980 1-687): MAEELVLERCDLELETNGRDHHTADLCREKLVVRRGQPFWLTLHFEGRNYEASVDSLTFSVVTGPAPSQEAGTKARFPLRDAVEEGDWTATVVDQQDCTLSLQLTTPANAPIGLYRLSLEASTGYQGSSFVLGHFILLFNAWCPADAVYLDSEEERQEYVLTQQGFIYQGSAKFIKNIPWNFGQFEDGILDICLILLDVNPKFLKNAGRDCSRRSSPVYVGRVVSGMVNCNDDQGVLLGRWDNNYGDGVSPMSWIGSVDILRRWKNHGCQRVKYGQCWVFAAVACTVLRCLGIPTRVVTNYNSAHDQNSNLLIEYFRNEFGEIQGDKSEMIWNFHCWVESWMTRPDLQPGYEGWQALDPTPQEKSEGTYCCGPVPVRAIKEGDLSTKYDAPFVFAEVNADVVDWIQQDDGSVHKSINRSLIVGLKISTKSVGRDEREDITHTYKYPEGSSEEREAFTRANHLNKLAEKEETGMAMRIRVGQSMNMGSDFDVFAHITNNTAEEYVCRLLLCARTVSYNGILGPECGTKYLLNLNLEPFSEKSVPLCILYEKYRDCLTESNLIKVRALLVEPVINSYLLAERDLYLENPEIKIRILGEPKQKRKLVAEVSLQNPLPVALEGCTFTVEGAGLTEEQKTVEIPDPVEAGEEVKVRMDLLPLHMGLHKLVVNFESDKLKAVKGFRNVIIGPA
Description: rhTG2 inhibition assay, continuous chromogenic substrate AL5, Kitz and Wilson conditions. It is filed as biochemical. The conditions noted are these: for kinact / Ki: * compounds fitted to double reciprocal model, 25 °C, pH 6.9, 100 µM AL5; for kinact/KI: * double reciprocal model, ** lowest concentrations of saturation plot fitted to a linear model; for Ki: irreversible inhibition. The text has this:
Relative to the original scaffold, we expected the potency of these novel chemical biology tools to decrease slightly, due to the additional bulk incorporated on the glutamate sidechain. Although we expected the sidechain moiety to be directed into bulk solvent, we were concerned that its mass and charge would disfavor the binding interaction. Therefore, we kinetically characterized these probes as rigorously as possible, in order to determine their relative affinity and reactivity. For most inhibitors we have made, including the parent inhibitor AA9 (Figure 1), we have been able to measure kinetic parameters under Kitz and Wilson conditions. This experimental approach is based on the use of a continuous activity assay and the measurement of first-order rate constants for the time-dependent inactivation of enzyme (see Figure 2A and Figures S1–S5 in Supplementary Materials). The dependence of these observed rate constants (kobs) on the inhibitor concentration divided by alpha ([I]/α) can then be fitted to a hyperbolic saturation model where the upper plateau represents the rate constant of inactivation (kinact), and the concentration providing half the rate constant of inactivation represents KI (Figure 2B). […] To compensate for this, the overall efficiency of the inhibitor (kinact/KI) can be derived from the slope of the linear region of the saturation plot (Figure 2C). To gauge the individual parameters, a double reciprocal fitting was also employed where KI can be calculated from the x-axis intercept and kinact can be calculated from the y-axis intercept (Figure 2D).
Recombinant human TG2 was expressed and purified using previously published protocols. The inhibition was monitored using a continuous chromogenic substrate AL5 [38] under Kitz and Wilson conditions. In brief, 125 µL of assay buffer composed of 111.11 mM MOPS, 15.56 CaCl2 pH 6.9 was added to a 1.5 mL Eppendorf tube to achieve final assay concentrations of 50 mM MOPS and […] CaCl2. To the tube was then added the respective concentration of inhibitor from an aqueous working stock (<5% DMSO final conditions). Various volumes of water were then added to ensure the final volumes were equal. The AL5 substrate was added to the Eppendorf tube as a 5 µL 5.56 mM solution in DMSO to obtain a final assay concentration of 100 µM. A 96-well polystyrene microplate then had 180 µL of the assay mixture added to it. The enzymatic reaction was finally initiated by addition of 20 µL 5 mU prediluted TG2 in assay buffer using a multichannel pipette. The reaction was monitored at 405 nm using a BioTek Synergy 4 plate reader for 20 min at 25 °C. A positive control with no inhibitor and a blank with no enzyme nor inhibitor were also included. The blank subtracted kinetic curves were then analyzed. The observed first-order rate constants of inactivation were gathered through a one-phase association model using the GraphPad software package. The rate constants were then fit to various models to elucidate the inhibition parameters. If saturation was achieved, they were fit to a saturation model versus the inhibitor concentration divided by alpha (where α=1+Substrate/Km ). A linear regression of the linear region of this saturation fitting was calculated to obtain a ratio of kinact/KI. A further double reciprocal model was used if saturation could not be observed due to the limitations in sensitivity of the assay or if solubility issues were present.

`C=CC(=O)NCCCCC(NC(=O)OCc1ccccc1)C(=O)N1CCN(C(=O)C(CCC(=O)NCCCCCC(=O)NC(CC(=O)O)C(=O)NC(CC(=O)O)C(=O)NC(CC(=O)O)C(=O)O)NC(=O)c2cccc3ccccc23)CC1` (centres unmarked) [Compound 17]: the efflux ratio in the data set with P-gp came out at 1.39. In data set [1], this compound came in with a Papp A→B of 3.1 nm/s and a Papp B→A of 4.2 nm/s. Also, the “−Log Pe” value in the data set “PAMPA test” is greater than 9.02. In addition, at Recombinant human TG2, the kinact is 0.0065 s⁻¹, the kinact/KI was 6820 M⁻¹ s⁻¹ and the Ki stood at 1 ± 0.3 µM.
Turning to `C=CC(=O)NCCCCC(NC(=O)OCc1ccccc1)C(=O)N1CCN(C(=O)C(CCC(=O)NCC(=O)NCC(=O)NCC(=O)NC(CC(=O)O)C(=O)NC(CC(=O)O)C(=O)NC(CC(=O)O)C(=O)O)NC(=O)c2cccc3ccccc23)CC1` (centres unmarked) [Compound 18] (X1-GGGDDD-OH; configuration not given here), the efflux ratio with P-gp came to 1.18. Besides, in data set [1], the Papp A→B is 4.7 nm/s and the Papp B→A stood at 5.6 nm/s. For the same compound, the “−Log Pe” value in the data set “PAMPA test” was greater than 8.79. In addition, on Recombinant human TG2, the kinact is 0.0388 s⁻¹, the kinact/KI is 9380 M⁻¹ s⁻¹ and the Ki was 4.1 ± 2.1 µM.
